The subject of the test is KRAS^G12C PDAC cell lines (MIAPaCa-2, XWR200). Description: Long-term clonogenic growth, acquired MAPKi resistance in PDAC cell lines. The test is classed as cell-based, human. Conditions: combined with MAPKi (type II RAFi+MEKi or KRAS G12Ci+MEKi); FIG. 6A to 6F. An excerpt: FIGS. 6A-6J. DNA-PKi co-treatment prevents acquired MAPKi-resistance in KRAS^G12 human pancreatic ductal adenocarcinoma and non-small cell lung carcinoma cell lines. FIGS. 6A to 6J: Long-term clonogenic growth of PDAC (MIAPaCa-2, XWR200) (6A to 6F) or NSCLC (H358, H2122) (6G to 6J) cell lines showing acquired-resistant colonies to MEKi alone, type II RAFi+MEKi, or KRAS G12Ci+MEKi and their suppression by indicated co-treatments with DNA-PKi (NU7026) and/or PARPi (ABT888) at indicated concentrations. Top, representative cultures; bottom, quantifications over n=4 fields (mean±SD). Data representative of 2 independent repeats. Seeding densities (cells/well in 6-well dishes) and culture durations: MIAPaCa-2 (10,000; 30 days for 6A-6C), XWR200 (150,000; 23 days for 6D, 30 days for 6E, 26 days for 6F), H358 (40,000; 14 days for 6G, 29 days for 6H, 26 days for 6I), H2122 (20,000, 22 days for 6J). […]
For clonogenic assay, cells were plated at indicated cell densities in six-well plates and treated with inhibitor(s) the next day. […] Formazan was then dissolved in 100 μL DMSO, and the absorbance values were measured using an ELISA reader (SpectraMax Plus 384) at the wavelength of 570 nm, blanked with DMSO solution. […]

For the compound `C[C@]1(c2nc3c(C(N)=O)cccc3[nH]2)CCCN1` [ABT888, veliparib], the “suppression of acquired MAPKi resistance, number of PDAC cell lines” value is listed as “generally ineffective”.
As for `O=c1cc(N2CCOCC2)oc2c1ccc1ccccc12` [NU7026], the entry is “two of two”.

For the origin of these results see patent US20260240842A1, “METHODS TO PREVENT THERAPY RESISTANCE IN MELANOMA VIA BLOCKING GENOMIC INSTABILITY” (THE REGENTS OF THE UNIVERSITY OF CALIFORNIA, priority 2022, published 2026).
